Measured values published in patent US6737383B1, “Herbicidal oxadiazolidines” (priority 1999, dated 2004).

Columns and labels:
[1] = tested on: blackgrass; experiment: Test B pre/postemergence blackgrass; assay type: in vivo, Alopecurus myosuroides
Procedure, shortened: (§1)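 Herbicidal effect was estimated by eye on a ten-point control scale after plants spent twelve to sixteen days in a greenhouse following soil or foliar treatment. Foliar sprays targeted plants at one to four leaves; all doses were formulated in a non-phytotoxic solvent with surfactant.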

[2] = tested on: cocklebur; experiment: Test B pre/postemergence cocklebur; assay type: in vivo, Xanthium strumarium
Procedure, shortened: as §1

[3] = tested on: corn; experiment: Test B pre/postemergence corn; assay type: in vivo, Zea mays
Procedure, shortened: as §1

[4] = tested on: crabgrass; experiment: Test B pre/postemergence crabgrass; assay type: in vivo, Digitaria sanguinalis
Procedure, shortened: as §1

[5] = tested on: giant foxtail; experiment: Test B pre/postemergence giant foxtail; assay type: in vivo, Setaria faberii
Procedure, shortened: as §1

[6] = tested on: morningglory; experiment: Test B pre/postemergence morningglory; assay type: in vivo, Ipomoea hederacea
Procedure, shortened: as §1

[7] = tested on: pigweed; experiment: Test B pre/postemergence pigweed; assay type: in vivo, Amaranthus retroflexus
Procedure, shortened: as §1

[8] = tested on: rape; experiment: Test B pre/postemergence rape; assay type: in vivo, Brassica napus
Procedure, shortened: as §1

[9] = tested on: soybean; experiment: Test B pre/postemergence soybean; assay type: in vivo, Glycine max
Procedure, shortened: as §1

[10] = tested on: sugar beet; experiment: Test B pre/postemergence sugar beet; assay type: in vivo, Beta vulgaris
Procedure, shortened: as §1

[11] = tested on: velvetleaf; experiment: Test B pre/postemergence velvetleaf; assay type: in vivo, Abutilon theophrasti
Procedure, shortened: as §1

[12] = tested on: wheat; experiment: Test B pre/postemergence wheat; assay type: in vivo, Triticum aestivum
Procedure, shortened: as §1

[13] = tested on: purple nutsedge; experiment: Test B pre/postemergence purple nutsedge; assay type: in vivo, Cyperus rotundus
Procedure, shortened: as §1

[14] = tested on: rice; experiment: Test B flood test rice; assay type: in vivo, Oryza sativa
Procedure, shortened: (§2)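 Read-out is a visual response score from 0 (no effect) to 10 (complete control), assigned by comparison with untreated controls. Treatment was applied at the 2-leaf stage, and plants stayed in the greenhouse for twelve to sixteen days before scoring.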

[15] = tested on: smallflower flatsedge; experiment: Test B flood test smallflower flatsedge; assay type: in vivo, Cyperus difformis
Procedure, shortened: as §2

[16] = tested on: duck salad; experiment: Test B flood test duck salad; assay type: in vivo, Heteranthera limosa
Procedure, shortened: as §2

[17] = Postemergence, Rate 125 g/ha, scale of 0 to 10 where 0 is no effect and 10 is complete control
[18] = Preemergence, Rate 62 g/ha, scale 0 to 10 (0 no effect, 10 complete control)
[19] = Preemergence, Rate 125 g/ha, 0 is no effect, 10 is complete control
[20] = Preemergence, Rate 250 g/ha, scale 0 to 10, 0 is no effect, 10 is complete control
[21] = Preemergence, Rate 500 g/ha, scale 0 to 10 (0 no effect, 10 complete control)
[22] = Rate 62 g/ha, Postemergence, scale of 0 to 10 where 0 is no effect and 10 is complete control
[23] = Rate 250 g/ha, Postemergence, scale 0 to 10, 0 is no effect, 10 is complete control
[24] = Rate 500 g/ha, Postemergence, scale 0 to 10
[25] = Postemergence, Rate 1000 g/ha, scale 0 to 10 (0 no effect, 10 complete control)
[26] = Rate 250 g/ha, Postemergence (flood test), scale 0 to 10, 0 is no effect, 10 is complete control
[27] = Rate 500 g/ha, listed under Postemergence (flood test species), scale 0 to 10
[28] = Rate 2000 g/ha, Postemergence, scale 0 to 10

## Cc1nsc(C)c1-n1c(=O)on(C(=O)N(c2ccc(F)cc2)C(C)C)c1=O [Compound 157]
[1]; [17]
  Blackgrass plant response rating: 0
[1]; [18]
  Blackgrass plant response rating: 0
[1]; [19]
  Blackgrass plant response rating (0 to 10 scale): 0
[1]; [20]
  Blackgrass plant response rating: 5
[1]; [21]
  Blackgrass plant response rating: 5
[1]; [22]
  Blackgrass plant response rating: 0
[1]; [23]
  Plant response rating, Blackgrass: 0
[1]; [24]
  Blackgrass plant response rating: 2
[2]; [17]
  Cocklebur plant response rating: 0
[2]; [18]
  Cocklebur plant response rating: 0
[2]; [19]
  Cocklebur plant response rating (0 to 10 scale): 0
[2]; [20]
  Cocklebur plant response rating: 0
[2]; [21]
  Cocklebur plant response rating: 0
[2]; [22]
  Cocklebur plant response rating: 0
[2]; [23]
  Plant response rating, Cocklebur: 0
[2]; [24]
  Cocklebur plant response rating: 0
[3]; [17]
  Corn plant response rating: 0
[3]; [18]
  Corn plant response rating: 0
[3]; [19]
  Corn plant response rating (0 to 10 scale): 0
[3]; [20]
  Corn plant response rating: 0
[3]; [21]
  Corn plant response rating: 0
[3]; [22]
  Corn plant response rating: 0
[3]; [23]
  Plant response rating, Corn: 0
[3]; [24]
  Corn plant response rating: 0
[4]; [17]
  Crabgrass plant response rating: 0
[4]; [18]
  Crabgrass plant response rating: 0
[4]; [19]
  Crabgrass plant response rating (0 to 10 scale): 2
[4]; [20]
  Crabgrass plant response rating: 4
[4]; [21]
  Crabgrass plant response rating: 6
[4]; [22]
  Crabgrass plant response rating: 0
[4]; [23]
  Plant response rating, Crabgrass: 2
[4]; [24]
  Crabgrass plant response rating: 7
[5]; [17]
  Giant foxtail plant response rating: 1
[5]; [18]
  Giant foxtail plant response rating: 3
[5]; [19]
  Giant foxtail plant response rating (0 to 10 scale): 6
[5]; [20]
  Giant foxtail plant response rating: 8
[5]; [21]
  Giant foxtail plant response rating: 10
[5]; [22]
  Giant foxtail plant response rating: 0
[5]; [23]
  Plant response rating, Giant foxtail: 4
[5]; [24]
  Giant foxtail plant response rating: 4
[6]; [17]
  Morningglory plant response rating: 1
[6]; [18]
  Morningglory plant response rating: 0
[6]; [19]
  Morningglory plant response rating (0 to 10 scale): 0
[6]; [20]
  Morningglory plant response rating: 0
[6]; [21]
  Morningglory plant response rating: 3
[6]; [22]
  Morningglory plant response rating: 0
[6]; [23]
  Plant response rating, Morningglory: 1
[6]; [24]
  Morningglory plant response rating: 1
[7]; [17]
  Redroot pigweed plant response rating: 0
[7]; [18]
  Redroot pigweed plant response rating: 0
[7]; [19]
  Redroot pigweed plant response rating (0 to 10 scale): 0
[7]; [20]
  Redroot pigweed plant response rating: 0
[7]; [21]
  Redroot pigweed plant response rating: 0
[7]; [22]
  Redroot pigweed plant response rating: 0
[7]; [23]
  Plant response rating, Redroot pigweed: 0
[7]; [24]
  Redroot pigweed plant response rating: 0
[8]; [17]
  Rape plant response rating: 0
[8]; [18]
  Rape plant response rating: 0
[8]; [19]
  Rape plant response rating (0 to 10 scale): 0
[8]; [20]
  Rape plant response rating: 0
[8]; [21]
  Rape plant response rating: 0
[8]; [22]
  Rape plant response rating: 0
[8]; [23]
  Plant response rating, Rape: 0
[8]; [24]
  Rape plant response rating: 0
[9]; [17]
  Soybean plant response rating: 1
[9]; [18]
  Soybean plant response rating: 0
[9]; [19]
  Soybean plant response rating (0 to 10 scale): 0
[9]; [20]
  Soybean plant response rating: 0
[9]; [21]
  Soybean plant response rating: 0
[9]; [22]
  Soybean plant response rating: 0
[9]; [23]
  Plant response rating, Soybean: 1
[9]; [24]
  Soybean plant response rating: 2
[10]; [17]
  Sugarbeets plant response rating: 0
[10]; [18]
  Sugarbeets plant response rating: 0
[10]; [19]
  Sugarbeets plant response rating (0 to 10 scale): 0
[10]; [20]
  Sugarbeets plant response rating: 0
[10]; [21]
  Sugarbeets plant response rating: 0
[10]; [22]
  Sugarbeets plant response rating: 0
[10]; [23]
  Plant response rating, Sugarbeets: 0
[10]; [24]
  Sugarbeets plant response rating: 0
[11]; [18]
  Velvetleaf plant response rating: 0
[11]; [19]
  Velvetleaf plant response rating (0 to 10 scale): 0
[11]; [20]
  Velvetleaf plant response rating: 0
[11]; [21]
  Velvetleaf plant response rating: 0
[11]; [23]
  Plant response rating, Velvetleaf: 0
[11]; [24]
  Velvetleaf plant response rating: 0
[12]; [18]
  Wheat plant response rating: 0
[12]; [19]
  Wheat plant response rating (0 to 10 scale): 0
[12]; [20]
  Wheat plant response rating: 0
[12]; [21]
  Wheat plant response rating: 0
[12]; [23]
  Plant response rating, Wheat: 0
[12]; [24]
  Wheat plant response rating: 0
[13]; [17]
  Nutsedge plant response rating: 0
[13]; [18]
  Nutsedge plant response rating: 0
[13]; [19]
  Nutsedge plant response rating (0 to 10 scale): 0
[13]; [20]
  Nutsedge plant response rating: 0
[13]; [21]
  Nutsedge plant response rating: 0
[13]; [22]
  Nutsedge plant response rating: 0
[13]; [23]
  Plant response rating, Nutsedge: 0
[13]; [24]
  Nutsedge plant response rating: 0
[14]; [25]
  Rice plant response rating: 0
[14]; [26]
  Plant response rating, Rice: 0
[14]; [27]
  Rice plant response rating: 0
[14]; [28]
  Rice plant response rating: 0
[15]; [25]
  S. Flatsedge plant response rating: 0
[15]; [26]
  Plant response rating, S. Flatsedge: 0
[15]; [27]
  S. Flatsedge plant response rating: 0
[15]; [28]
  S. Flatsedge plant response rating: 0
[16]; [25]
  Ducksalad plant response rating: 0
[16]; [26]
  Plant response rating, Ducksalad: 0
[16]; [27]
  Ducksalad plant response rating: 0
[16]; [28]
  Ducksalad plant response rating: 0
